The experiment concerns lumbar motoneurons. Briefly: Motoneuron death following limb bud removal. It counts as in vivo, chick. The text has this: Peptides. Two peptide inhibitors of ICE, Acetyl-Tyr-Val-Ala-Asp-aldehyde (Ac-YVAD-CHO) and Acetyl-Tyr-Val-Ala-Asp-chloromethylketone (Ac-YVAD-CMK) and two control peptide inhibitors, Acetyl-Leu-Leu-Arg-aldehyde (Ac-LLR-CHO; Leupeptin) and n-tosyl-Lys-chloromethyl-ketone (Tos-Lys-CMK) were synthesized by Bachem Biosciences (King of Prussia, Pa.) and shown by thin layer chromatography and HPLC to be greater than 98% pure. […] Methods for administration of peptides to examine effects on naturally occurring motoneuron cell death in vivo. Although cell death of lumbar motoneurons occurs between E6 and E12, the peak period of death (i.e., the greatest number of pyknotic cells) occurs on E8 (Oppenheim et al., J Comp. Neurol. 177:87-112 (1978)). For these experiments, embryos were given a single administration of an agent on E8 0 hr and sacrificed 15 hours later. […] Ac-YVAD-CMK and Tos-Lys-CMK were administered in a solution of DMSO/BSA, whereas Ac-YVAD-CHO and leupeptin (Sigma) were in BSA alone. The solutions (50-100 μl) were dropped onto the highly vascularized chorioallantoic membrane through a window in the shell. The control groups included both DMSO and BSA or vehicle alone. Embryos were killed and staged by the Hamburger-Hamilton series (Hamburger and Hamilton, J. Morph. 88:49-92 (1951)). The thoraco-lumbar spinal cord was dissected, fixed in Camoys or Bouins fixative, processed for paraffin histology, serially sectioned (10-12 μm) and stained with either thionin or hematoxylin and eosin. Pyknotic motoneurons were identified based on criteria previously described (Chu-Wang and Oppenheim, J. Comp. Neurol. 177:33-58 (1978); Clarke and Oppenheim In Methods in Cell Biology Series; Cell Death; eds: Schwartz and Osborne. Academic Press. New York, N.Y. In press.) and were counted in every 10th or 20th section through the entire lumbar enlargement. The total number of pyknotic cells were then estimated by multiplying these values by 10 or 20. All cell counts were performed by individuals blinded with regard to drug treatment of the embryos. Methods for limb bud removal experiments. A unilateral limb bud removal was performed on E2 as described previously (Oppenheim et al., J. Comp. Neurol. 177:87-112 (1978)). Because induced cell death following limb removal begins on E5 (before that there is no difference in the number of motoneurons between the operated or unoperated sides) embryos were given one treatment of Ac-YVAD-CHO (40 μg) or BSA (control) at E5-0 hr and another at E5-12 hours (total peptide administered was 80 μg). Animals were killed at E6-0 hr. Methods were the same as described above except the section thickness was 6-8 μm (see Method for Administration of Peptides, above). Methods for limb bud interdigital regions. Embryos were treated with 100 μg of peptide or vehicle in 50 μl on E6.0 and on E7.0 (total 200 μg) as described above (Chu-Wang and Oppenheim, J. Comp. Neurol. 177:33-58 (1978); Clarke and Oppenheim In Methods in Cell Biology Series; Cell Death; eds: Schwartz and Osborne. Academic Press. New York, N.Y. In press.) and killed at E7.5. The footpads were placed in Bouin's fixative and processed as described above (see Method of Limb Bud Removal, above). Pyknotic cells in all interdigital regions were counted in every 10th section (6-8 μm) of serial transverse sections through the entire footpad.

The mark [1] stands for this setting: limb bud removal on E2, 40 μg at E5-0 hr and E5-12 hours, mean ±SD.
The mark [2] stands for this setting: unoperated side, 40 μg at E5-0 hr and E5-12 hours, mean ±SD.

On to “Acetyl-Tyr-Val-Ala-Asp-aldehyde [Ac-YVAD-CHO]”, for which, for the setting “following limb bud removal”, the survival promoting effect entry is recorded as “no survival promoting effect”. Further, under setting [1], the “Healthy Motoneurons (lumbar) on E6, Ipsilateral” value is 11,109 ± 1592 and the “Pyknotic Motoneurons (lumbar) on E6, Ipsilateral” value amounted to 317 ± 89. In addition, under setting [2], the “Healthy Motoneurons (lumbar) on E6, Contralateral” value is 17,914 ± 1733 and the “Pyknotic Motoneurons (lumbar) on E6, Contralateral” value is on record as 67 ± 13.
